Article PMC10786692 (The Journal of Clinical Investigation, 2024)
Several values for one entry are separate records, joined by “and”; a condition that tells them apart may be missing. Equal entries are not always repeated. Where two headings read alike, the source gives them in different places.

Assays:
[1] = Plasma pharmacokinetics of ceralasertib (HPLC-MS/MS, NCA); assay type: in vivo, human; conditions: for half-life: read-out: Mean terminal elimination half-life
Protocol: Intensive PK sampling in part A occurred after a single dose from predose up to 24 to 72 hours and again at day 15 and day 29 of continuous dosing. Participants fasted for 1 hour before and 2 hours after dosing for PK assessment. In part B, sampling coincided with day 15 PD assessments. Full details are given in Supplemental Methods. […]
Evaluated PK […]
maximum observed plasma concentration (Cmax), time to Cmax (tmax), and apparent terminal half-life (t1/2) calculated as ln/lambda-z where lambda-z (lz) is the apparent terminal phase rate- […]
constant estimated by linear regression of logarithmically-transformed concentration-versus-time data. A minimum of three data points were used in calculating lz as per AstraZeneca standard operating procedures. Data from multiple dosing were used to derive accumulation ratios based on Cmax (Race Cmax) and AUC(0-8) (Rac AUC0-8) defined as the ratio between Cmax or AUC(0-8) after multiple dose and Cmax and AUC(0-8) at day 1. All PK parameters for […]
WinNonLin v8.3 software or higher where the ‘linear up/log down trapezoidal rule’ for AUC was […]
applied. […]

[2] = tested on: ATR; conditions: preclinical; cited from earlier work
[3] = tested on: γH2AX; assay: PBMC γH2AX immunofluorescence (% cells with >5 foci); assay type: in vivo, human; conditions: after treatment at the RP2D, most subjects
Protocol: PD sampling took place at baseline (within 7 days prior to dosing) and between days 15 and 22 of dosing (day 14 for intermittent dosing cohorts). PD samples included PBMCs and tumor biopsies. PBMCs were analyzed by immunofluorescence for γ^(S139)H2AX, p-^(S345)Chk1, and total Chk1, as described in Supplemental Methods. Paired tumor biopsies were formalin fixed and analyzed for nuclear p-^(S635)Rad50 and γH2AX by IHC.
PBMCs were isolated from blood using BD Vacutainer® CPT™ Cell preparation tubes with sodium citrate (BD Biosciences, Wokingham, UK) and fixed with 4% formalin containing 1% Triton™ X-100 (Sigma-Aldrich, St. Louis, MO). […] A Carl Zeiss LSM 700 confocal laser scanning fluorescence microscope (Zeiss, Jena, Germany) was used to visualize and capture images of the PBMCs. Fluorescent nuclear intensity for phospho-(S345) and total Chk1 in individual PBMC cells were quantified using the IN Cell Investigator Developer Toolbox v1.9 software (GE Healthcare Biosciences, Piscataway, NJ). For the phospho(S345)- and total Chk1 assays: the raw data values (fluorescent nuclear intensity for PBMCs), the percentage change for phospho(S345) biomarker was calculated for each subject by comparing the levels measured at each post-dose time point to pre-dose levels measured at baseline. […]
Peripheral blood was drawn into 8 mL EDTA tubes (Vacutainer, BD) and analyzed within 24 hours. […]

## C[C@@H]1COCCN1c1cc(C2([S@](C)(=N)=O)CC2)nc(-c2cc[nH]c3nccc2-3)n1 [ceralasertib]
[1]; 20 mg day 0, 24 h
  Plasma concentration, individual patients: […]
[1]; 20 mg day 1, 24 h
  Plasma concentration, individual patients: […]
[1]; 40 mg day 0, 0 h, in ng/mL
  Plasma concentration, individual patients: 0
[1]; 40 mg day 0, 0.5 h
  Plasma concentration, individual patients: […]
[1]; 40 mg day 0, 1 h
  Plasma concentration, individual patients: […]
[1]; 40 mg day 0, 2 h
  Plasma concentration, individual patients: […]
[1]; 40 mg day 0, 4 h
  Plasma concentration, individual patients: […]
[1]; 40 mg day 0, 8 h
  Plasma concentration, individual patients: […]
[1]; 40 mg day 0, 24 h
  Plasma concentration, individual patients: 226 ng/mL and 224 ng/mL
[1]; 40 mg day 1, 0.5 h
  Plasma concentration, individual patients: […]
[1]; 40 mg day 1, 1 h
  Plasma concentration, individual patients: […]
[1]; 40 mg day 1, 2 h
  Plasma concentration, individual patients: […]
[1]; 40 mg day 1, 4 h
  Plasma concentration, individual patients: […]
[1]; 40 mg day 1, 8 h
  Plasma concentration, individual patients: […]
[1]; 40 mg day 1, 24 h
  Plasma concentration, individual patients: 1220 ng/mL and 677 ng/mL
[1]; 80 mg day 0, 0 h, in ng/mL
  Plasma concentration, individual patients: 0
[1]; 80 mg day 0, 0.5 h
  Plasma concentration, individual patients: 0 ng/mL
[1]; 80 mg day 0, 2 h
  Plasma concentration, individual patients: […]
[1]; 80 mg day 0, 4 h
  Plasma concentration, individual patients: […]
[1]; 80 mg day 0, […], in ng/mL
  Plasma concentration, individual patients: 0
[1]; 80 mg day 1, 0.5 h
  Plasma concentration, individual patients: […]
[1]; 80 mg day 1, 1 h
  Plasma concentration, individual patients: […]
[1]; 80 mg day 1, 2 h
  Plasma concentration, individual patients: […]
[1]; 80 mg day 1, 4 h
  Plasma concentration, individual patients: […]
[1]; all doses, single and multiple dose
  Oral absorption: rapidly orally absorbed
[1]; human, plasma, oral, 20 mg, 20 mg day 0, 0 h, read-out: Plasma concentration, individual patients
  concentration at 0 h: 0 ng/mL
[1]; human, plasma, oral, 20 mg, 20 mg day 0, 4 h, read-out: Plasma concentration, individual patients
  concentration at 4 h: […]
[1]; human, plasma, oral, 20 mg, 20 mg day 0, 8 h, read-out: Plasma concentration, individual patients
  concentration at 8 h: 562 ng/mL
[1]; human, plasma, oral, 20 mg, 20 mg day 1, 2 h, read-out: Plasma concentration, individual patients
  concentration at 2 h: […]
[1]; human, plasma, oral, 20 mg, 20 mg day 1, 4 h, read-out: Plasma concentration, individual patients
  concentration at 4 h: […]
[1]; human, plasma, oral, 20 mg, 20 mg day 1, 8 h, read-out: Plasma concentration, individual patients
  concentration at 8 h: 618 ng/mL
[1]; human, plasma, oral, 40 mg, 40 mg day 0, 2 h, read-out: Plasma concentration, individual patients
  concentration at 2 h: […]
[1]; human, plasma, oral, 40 mg, 40 mg day 0, 4 h, read-out: Plasma concentration, individual patients
  concentration at 4 h: […]
[1]; human, plasma, oral, 40 mg, 40 mg day 0, 8 h, read-out: Plasma concentration, individual patients
  concentration at 8 h: 1010 ng/mL
[1]; human, plasma, oral, 40 mg, 40 mg day 0, 24 h, read-out: Plasma concentration, individual patients
  concentration at 24 h: 203 ng/mL
[1]; human, plasma, oral, 40 mg, 40 mg day 1, 1 h, read-out: Plasma concentration, individual patients
  concentration at 1 h: 2490 ng/mL
[1]; human, plasma, oral, 40 mg, 40 mg day 1, 2 h, read-out: Plasma concentration, individual patients
  concentration at 2 h: 2290 ng/mL
[1]; human, plasma, oral, 40 mg, 40 mg day 1, 4 h, read-out: Plasma concentration, individual patients
  concentration at 4 h: 1640 ng/mL
[1]; human, plasma, oral, 40 mg, 40 mg day 1, 8 h, read-out: Plasma concentration, individual patients
  concentration at 8 h: 996 ng/mL
[1]; human, plasma, oral, 40 mg, 40 mg day 1, 24 h, read-out: Plasma concentration, individual patients
  concentration at 24 h: […]
[1]; human, plasma, oral, 80 mg, 80 mg day 0, 0 h, read-out: Plasma concentration, individual patients
  concentration at 0 h: 0 ng/mL
[1]; human, plasma, oral, 80 mg, 80 mg day 0, […], read-out: Plasma concentration, individual patients
  concentration at […]: 0 ng/mL
[1]; human, plasma, oral, 160 mg, 160 mg day 0, 0 h, read-out: Plasma concentration, individual patients
  concentration at 0 h: 0 ng/mL
[1]; human, plasma, oral, 240 mg, 240 mg day 0, 0 h, read-out: Plasma concentration, individual patients
  concentration at 0 h: 0 ng/mL
[1]; human, plasma, oral, 240 mg, 240 mg day 0, 8 h, read-out: Plasma concentration, individual patients
  concentration at 8 h: […]
[1]; human, plasma, oral, 240 mg, 240 mg day 0, read-out: Plasma concentration, individual patients
  concentration at 12 h: 4200 ng/mL
[1]; human, plasma, oral, 240 mg, 240 mg day 15, 0 h, read-out: Plasma concentration, individual patients
  concentration at 0 h: 8530 ng/mL
[1]; human, plasma, oral, 240 mg, 240 mg day 15, 0.5 h, read-out: Plasma concentration, individual patients
  concentration at 0.5 h: 13500 ng/mL
[1]; human, plasma, oral, 240 mg, 240 mg day 15, 1 h, read-out: Plasma concentration, individual patients
  concentration at 1 h: […]
[1]; human, plasma, oral, 240 mg, 240 mg day 15, 4 h, read-out: Plasma concentration, individual patients
  concentration at 4 h: 13500 ng/mL
[1]; human, plasma, oral, 240 mg, 240 mg day 15, 8 h, read-out: Plasma concentration, individual patients
  concentration at 8 h: 10200 ng/mL
[1]; human, plasma, oral, 240 mg, 240 mg day 15, read-out: Plasma concentration, individual patients
  concentration at 12 h: 9080 ng/mL
[1]; human, plasma, oral, 240 mg, 240 mg day 15, […], read-out: Plasma concentration, individual patients
  concentration at […]: […]
[1]; human, plasma, oral, 40 and 80 mg dose levels
  half-life: […]
[1]; human, plasma, oral, 160 and 240 mg dose levels
  half-life: […]
[1]; human, plasma, oral, all doses, single and multiple dose, read-out: Median time to peak drug concentration (tmax)
  Tmax: […]
[1]; single dosing, 80 to 240 mg
  Exposure versus dose: increased approximately proportionally
[2]
  IC90: […]
[3]
  γH2AX positivity in PBMCs: Increased
